In one assay the target is DGKζ (Homo sapiens (Human), UniProt Q13574). The experiment in a line: Biochemical DGK IC50 assay, DGKζ ADP-Glo assay. The conditions noted are these: 0.5 nM enzyme, 140 μM ATP, 80 μM DAG; read-out: DGKζ ADP-Glo assay IC50. In short, it runs like this:
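Full-length human DGKζ, His-TEV tagged and purified from baculovirus-infected Sf9 cells, assayed by ADP-Glo with DAG/PS lipid micelle substrate prepared in 25 mM HEPES pH 7.0 with octyl glucoside. Final compound concentrations spanned 1.55–10000 nM or 23.3–150000 nM.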
Background: ADP-Glo turns the ADP formed in a reaction into a luminescent signal.

In the next assay the target is DGKα (Homo sapiens (Human), UniProt P23743). The experiment in a line: Biochemical DGK IC50 assay, DGKα ADP-Glo assay. The settings on record: 7.5 nM enzyme, 140 μM ATP, 80 μM DAG. In short, it runs like this:
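ADP-Glo read-out with full-length DGKα on DAG/PS lipid micelle substrate in 25 mM HEPES pH 7.0, 0.5 mM EDTA, 160 mM octyl β-D-glucopyranoside. Compound final concentrations spanned 1.55˜10000 nM or 23.3˜150000 nM.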

Structures are written as SMILES.

Chain of DGKα (P23743 whole entry): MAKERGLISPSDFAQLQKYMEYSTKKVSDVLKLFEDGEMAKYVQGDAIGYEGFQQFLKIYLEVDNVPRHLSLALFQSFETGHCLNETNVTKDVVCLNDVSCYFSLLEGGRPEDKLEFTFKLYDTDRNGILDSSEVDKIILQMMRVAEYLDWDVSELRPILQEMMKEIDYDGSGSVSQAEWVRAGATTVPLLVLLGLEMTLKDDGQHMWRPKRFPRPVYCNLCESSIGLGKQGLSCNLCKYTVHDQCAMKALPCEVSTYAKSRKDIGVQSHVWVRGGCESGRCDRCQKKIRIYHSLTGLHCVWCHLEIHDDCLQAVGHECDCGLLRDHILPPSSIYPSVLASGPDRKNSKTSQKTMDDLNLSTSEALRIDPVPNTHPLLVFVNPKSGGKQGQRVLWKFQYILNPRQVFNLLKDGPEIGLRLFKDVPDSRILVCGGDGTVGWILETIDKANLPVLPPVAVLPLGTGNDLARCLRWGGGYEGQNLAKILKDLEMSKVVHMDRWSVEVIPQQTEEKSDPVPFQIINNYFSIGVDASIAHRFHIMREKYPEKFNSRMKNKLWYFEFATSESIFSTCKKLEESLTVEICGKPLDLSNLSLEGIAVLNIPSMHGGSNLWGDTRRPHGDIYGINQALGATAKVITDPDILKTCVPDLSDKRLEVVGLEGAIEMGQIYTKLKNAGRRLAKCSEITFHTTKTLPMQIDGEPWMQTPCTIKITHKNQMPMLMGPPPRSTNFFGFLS
Chain of DGKζ (Q13574 other isoform, or with tags, fused parts or gaps): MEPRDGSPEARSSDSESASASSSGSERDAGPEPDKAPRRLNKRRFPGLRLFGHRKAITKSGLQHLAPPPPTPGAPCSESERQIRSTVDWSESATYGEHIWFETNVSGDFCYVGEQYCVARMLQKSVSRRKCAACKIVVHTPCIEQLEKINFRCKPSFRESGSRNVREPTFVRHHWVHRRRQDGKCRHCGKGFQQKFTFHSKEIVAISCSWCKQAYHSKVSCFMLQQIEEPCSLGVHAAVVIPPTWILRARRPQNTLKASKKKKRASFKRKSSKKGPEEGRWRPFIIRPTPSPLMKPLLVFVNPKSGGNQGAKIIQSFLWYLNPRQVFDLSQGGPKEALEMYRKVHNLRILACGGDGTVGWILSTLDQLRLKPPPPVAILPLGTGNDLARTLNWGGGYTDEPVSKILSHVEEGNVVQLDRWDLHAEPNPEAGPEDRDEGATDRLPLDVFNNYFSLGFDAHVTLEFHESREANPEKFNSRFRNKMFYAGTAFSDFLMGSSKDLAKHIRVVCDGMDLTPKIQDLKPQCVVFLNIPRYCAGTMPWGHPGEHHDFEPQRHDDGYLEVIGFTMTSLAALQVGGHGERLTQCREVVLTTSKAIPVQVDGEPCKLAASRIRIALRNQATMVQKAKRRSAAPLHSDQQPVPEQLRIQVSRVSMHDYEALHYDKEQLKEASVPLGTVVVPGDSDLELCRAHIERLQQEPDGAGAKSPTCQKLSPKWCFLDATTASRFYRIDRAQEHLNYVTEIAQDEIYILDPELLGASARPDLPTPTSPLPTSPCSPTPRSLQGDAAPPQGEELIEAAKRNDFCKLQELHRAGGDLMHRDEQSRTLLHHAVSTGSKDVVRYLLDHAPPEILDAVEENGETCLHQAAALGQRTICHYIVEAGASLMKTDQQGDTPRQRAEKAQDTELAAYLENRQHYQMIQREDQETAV

As usually defined, the IC50 is the midpoint of a concentration-inhibition curve. As to `CC#CCn1cc2c(n1)c(N1C[C@@H](C)N(C(C)c3ccc4c(c3)OC(C)(C)O4)C[C@@H]1C)cc(=O)n2C` (stereo partly drawn) [Compound A390, 2-(but-2-yn-1-yl)-7-((2S,5R)-4-(1-(2,2-dimethylbenzo[d][1,3]dioxol-5-yl)ethyl)-2,5-dimethylpiperazin-1-yl)-4-methyl-2,4-dihydro-5H-pyrazolo[4,3-b]pyridin-5-one], the results for the IC50 at DGKζ and at DGKα were 0.49 µM and 4.58 µM, respectively.
For `CC(c1ccc2nccnc2c1)N1C[C@H](C)N(c2nc(=O)n(C)c3cn(CC#N)nc23)C[C@H]1C` (stereo partly drawn) [Compound A154, 2-(7-((2S,5R)-2,5-dimethyl-4-(1-(quinoxalin-6-yl)ethyl)piperazin-1-yl)-4-methyl-5-oxo-4,5-dihydro-2H-pyrazolo[4,3-d]pyrimidin-2-yl)acetonitrile] the same measures were 0.104 µM and 9.21 µM.
Regarding `CC(c1ccc2ncc(C3CC3)nc2c1)N1C[C@H](C)N(c2cc(=O)n(C)c3cn(CC#N)nc23)C[C@H]1C` (stereo partly drawn) [Compound A310, 2-(7-((2S,5R)-4-(1-(3-cyclopropylquinoxalin-6-yl)ethyl)-2,5-dimethylpiperazin-1-yl)-4-methyl-5-oxo-4,5-dihydro-2H-pyrazolo[4,3-b]pyridin-2-yl)acetonitrile], the IC50 on DGKζ is 0.127 µM; against DGKα, 94.7 µM.
